According to PMC6923863 (BMC Pharmacology & Toxicology, 2019):

Columns and labels:
[1] = tested on: Sprague-Dawley rats; test: Thermal tail flick latency in rats with saline or morphine osmotic minipumps (opioid tolerance); assay type: in vivo, rat
[2] = tested on: Sprague-Dawley rats; test: Behavioural dysfunction scoring in minipump rats; details: 12 mg/kg IV over 30 s
[3] = tested on: Sprague-Dawley rats; test: Thermal sensitivity (tail flick latency) testing after bolus injection or infusion; assay type: in vivo, rat; details: pre-emptive analgesia, hypnotic and sub-hypnotic IV dosing regimens
[4] = tested on: GABAA Receptor
[5] = target: T1, HCN1 K^+ Channel (Homo sapiens, UniProt O60741); test: Molecular target binding profile: patch-clamp functional assay (Eurofins Panlabs 952727); assay type: cell-based
T1 construct: Eurofins Panlabs Ltd., Taipei, Taiwan 952727
T1 sequence (O60741 1-890): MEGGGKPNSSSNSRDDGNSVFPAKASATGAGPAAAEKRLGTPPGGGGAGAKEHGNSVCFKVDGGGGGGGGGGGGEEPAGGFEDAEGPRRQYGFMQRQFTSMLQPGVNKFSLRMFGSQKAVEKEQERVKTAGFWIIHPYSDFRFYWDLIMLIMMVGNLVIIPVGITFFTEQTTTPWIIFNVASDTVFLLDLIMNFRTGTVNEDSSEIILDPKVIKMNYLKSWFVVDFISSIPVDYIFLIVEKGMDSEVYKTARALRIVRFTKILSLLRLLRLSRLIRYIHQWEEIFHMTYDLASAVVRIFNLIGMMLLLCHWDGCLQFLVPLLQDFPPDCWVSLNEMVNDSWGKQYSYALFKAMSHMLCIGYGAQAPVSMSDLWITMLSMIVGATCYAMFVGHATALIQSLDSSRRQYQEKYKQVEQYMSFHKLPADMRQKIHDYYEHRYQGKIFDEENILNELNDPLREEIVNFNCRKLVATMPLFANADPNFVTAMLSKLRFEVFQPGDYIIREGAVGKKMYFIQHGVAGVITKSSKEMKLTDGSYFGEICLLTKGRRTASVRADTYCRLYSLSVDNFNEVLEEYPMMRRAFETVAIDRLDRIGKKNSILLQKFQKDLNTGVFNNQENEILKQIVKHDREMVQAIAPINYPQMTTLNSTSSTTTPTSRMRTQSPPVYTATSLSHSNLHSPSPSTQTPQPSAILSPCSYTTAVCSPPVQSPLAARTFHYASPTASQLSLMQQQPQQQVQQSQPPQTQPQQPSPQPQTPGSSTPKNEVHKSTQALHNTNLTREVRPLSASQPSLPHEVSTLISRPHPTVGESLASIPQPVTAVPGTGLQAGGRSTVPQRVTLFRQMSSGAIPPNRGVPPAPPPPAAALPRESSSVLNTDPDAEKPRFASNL

[6] = tested on: Sprague-Dawley rats; test: Pre-pulse inhibition (PPI) of acoustic startle and behavioural testing; assay type: in vivo, rat
[7] = tested on: Sprague-Dawley rats; test: Loss of righting reflex (LORR) following intravenous administration; assay type: in vivo, rat; details: for LORR duration, mean (SEM): 12 mg/kg IV over 30 s
[8] = target: Ca^2+ Channel L-Type (Rattus norvegicus, UniProt P22002); assay type: binding; details: only quoted where inhibition > 15%, read-out: Percent Inhibition at 10 μM
Ca^2+ Channel L-Type, sequence (P22002 whole entry): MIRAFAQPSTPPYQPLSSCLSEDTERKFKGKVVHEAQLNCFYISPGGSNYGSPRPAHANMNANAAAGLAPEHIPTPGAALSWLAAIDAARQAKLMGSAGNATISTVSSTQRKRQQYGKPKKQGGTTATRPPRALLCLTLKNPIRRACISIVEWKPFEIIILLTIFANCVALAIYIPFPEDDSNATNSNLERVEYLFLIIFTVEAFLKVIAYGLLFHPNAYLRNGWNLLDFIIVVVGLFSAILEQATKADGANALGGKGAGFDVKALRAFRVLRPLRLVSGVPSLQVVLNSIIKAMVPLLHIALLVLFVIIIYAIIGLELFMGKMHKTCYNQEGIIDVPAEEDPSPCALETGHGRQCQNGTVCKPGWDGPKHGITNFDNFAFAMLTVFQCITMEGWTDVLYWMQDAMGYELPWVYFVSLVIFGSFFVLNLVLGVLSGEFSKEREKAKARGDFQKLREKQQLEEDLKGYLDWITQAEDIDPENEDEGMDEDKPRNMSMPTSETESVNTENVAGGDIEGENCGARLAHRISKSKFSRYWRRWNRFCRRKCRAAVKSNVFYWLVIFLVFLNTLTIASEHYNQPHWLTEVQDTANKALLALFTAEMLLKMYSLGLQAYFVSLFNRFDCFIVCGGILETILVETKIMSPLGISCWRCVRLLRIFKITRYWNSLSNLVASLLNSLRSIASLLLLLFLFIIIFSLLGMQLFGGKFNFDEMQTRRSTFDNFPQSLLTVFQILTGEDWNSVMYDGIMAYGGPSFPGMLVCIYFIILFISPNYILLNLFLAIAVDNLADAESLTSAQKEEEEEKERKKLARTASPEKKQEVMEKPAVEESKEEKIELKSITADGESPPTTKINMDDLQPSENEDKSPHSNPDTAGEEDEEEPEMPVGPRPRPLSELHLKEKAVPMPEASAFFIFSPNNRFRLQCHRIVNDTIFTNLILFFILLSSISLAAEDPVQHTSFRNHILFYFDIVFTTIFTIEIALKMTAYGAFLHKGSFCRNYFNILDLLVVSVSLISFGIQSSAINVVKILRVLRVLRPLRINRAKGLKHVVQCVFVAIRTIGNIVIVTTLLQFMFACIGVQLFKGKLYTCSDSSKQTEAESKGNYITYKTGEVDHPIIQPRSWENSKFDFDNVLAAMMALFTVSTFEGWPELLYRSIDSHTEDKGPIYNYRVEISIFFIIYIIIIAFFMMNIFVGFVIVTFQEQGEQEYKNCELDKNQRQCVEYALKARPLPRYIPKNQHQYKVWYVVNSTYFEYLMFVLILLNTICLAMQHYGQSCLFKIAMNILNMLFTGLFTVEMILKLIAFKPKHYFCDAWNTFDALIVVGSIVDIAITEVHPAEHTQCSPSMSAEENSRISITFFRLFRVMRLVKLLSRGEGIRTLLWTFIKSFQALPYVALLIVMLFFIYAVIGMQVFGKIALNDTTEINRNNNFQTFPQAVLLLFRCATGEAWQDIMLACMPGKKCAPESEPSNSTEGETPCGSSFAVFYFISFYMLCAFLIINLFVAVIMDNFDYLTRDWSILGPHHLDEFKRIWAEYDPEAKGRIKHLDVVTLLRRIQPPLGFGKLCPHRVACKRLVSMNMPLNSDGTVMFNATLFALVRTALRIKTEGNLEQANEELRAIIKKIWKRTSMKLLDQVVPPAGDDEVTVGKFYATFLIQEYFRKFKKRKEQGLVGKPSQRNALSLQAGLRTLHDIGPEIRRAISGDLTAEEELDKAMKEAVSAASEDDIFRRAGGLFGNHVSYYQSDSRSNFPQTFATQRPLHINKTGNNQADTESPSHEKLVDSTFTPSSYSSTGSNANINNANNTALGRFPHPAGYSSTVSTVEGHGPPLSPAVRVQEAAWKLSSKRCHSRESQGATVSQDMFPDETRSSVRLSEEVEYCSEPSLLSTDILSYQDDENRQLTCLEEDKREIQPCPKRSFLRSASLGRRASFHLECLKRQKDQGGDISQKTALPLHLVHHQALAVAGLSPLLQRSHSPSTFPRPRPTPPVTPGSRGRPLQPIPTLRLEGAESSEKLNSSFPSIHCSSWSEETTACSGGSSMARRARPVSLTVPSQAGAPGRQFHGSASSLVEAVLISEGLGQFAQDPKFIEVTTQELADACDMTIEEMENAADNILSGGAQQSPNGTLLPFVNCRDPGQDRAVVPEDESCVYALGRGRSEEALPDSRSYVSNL

CNC1(c2ccccc2Cl)CCCCC1=O (stereo not drawn) [Ketamine]
Thermal tail flick latency, augmentation of morphine analgesia ([1]; 12 mg/kg IV over 30 s, morphine minipump animals, day one): augmented morphine mediated analgesia
Thermal tail flick latency in opioid tolerant rats ([1]; 12 mg/kg IV over 30 s, morphine minipump rats, day six): TFL prolongation of similar magnitude to that of saline mini-pump subjects
Thermal tail flick latency ([1]; 12 mg/kg IV over 30 s, opioid-naïve rats, day one post saline minipump insertion): Prolongation of thermal tail flick
Thermal tail flick latency ([1]; 12 mg/kg IV over 30 s, saline minipump rats, day six): prolonged tail flick latency
Time of gradual return to normal behavioural patterns ([2]; minipump rats): 40 to 50 min
Time of maximal behavioural dysfunction ([2]; minipump rats): 5 min
Behavioural dysfunction score / behavioural aberration ([2]; saline or morphine minipump rats, days one and six): profound behavioural aberration
Thermal tail flick latency [3]: prolonged thermal tail flick latency
Percent Inhibition at 10 μM ([4]; 10 μM, only quoted where inhibition > 15%): − (Percent Inhibition at 10 μM only quoted where inhibition > 15%)
IC50 ([4]; radioligand binding): > 10 µM
IC50 [5]: > 100 µM
inhibition at 100 µM ([5]; patch-clamp assay quoted at 100 μM, not 10 μM (top dose employed), read-out: Percent Inhibition): 15%
Pre-pulse inhibition (PPI) effect ([6]; 5 minutes after IV dosing, ketamine 10 mg/kg, KEA-1010 11 mg/kg, KEA-1037 10 mg/kg): disrupted the PPI effect
Percent PPI or startle amplitude ([6]; 30 min after drug administration): No statistically significant differences
Ataxia ([6]; behavioural testing post dosing, ketamine 10 mg/kg, KEA-1010 11 mg/kg, KEA-1037 10 mg/kg IV): greater ataxia at 23 and 48 min post dosing compared with vehicle
LORR duration, mean (SEM) ([7]; rats with morphine minipump (6 mg daily), day 1): 247.0 (28.4) seconds
LORR duration, mean (SEM) ([7]; rats with morphine minipump (6 mg daily), day 6): 272.5 (12.9) seconds
LORR duration, mean (SEM) ([7]; rats with saline minipump, day 1): 189.2 (23.8) seconds
LORR duration, mean (SEM) ([7]; rats with saline minipump, day 6): 277.0 (16.9) seconds
Induction of LORR, animals affected ([7]; 12 mg/kg over 30 s, rats with saline or morphine minipumps, days one and six): all animals
ED50 ([7]; Rattus norvegicus, rats, 30 s bolus intravenous injection): 9.6 mg/kg
Duration of loss of righting, mean (SEM) ([7]; rats, 10 minute hypnotic IV infusion (KEA-1010 total 56 mg/kg; ketamine total 28 mg/kg)): 418.0 (86.4) seconds
Duration of loss of righting, mean (SEM) ([7]; rats, hypnotic IV bolus over 15 s (KEA-1010 11 mg/kg; ketamine 10 mg/kg)): 491.8 (67.7) seconds
Slope of LORR duration vs. dose curves ([7]; rats, intravenous injection over 30 s): 69.8 s/mg/kg
inhibition at 10 µM [8]: 24%

CN1CC[C@]23c4c5ccc(O)c4O[C@H]2[C@@H](O)C=C[C@H]3[C@H]1C5 [morphine]
Thermal tail flick latency compared with vehicle treated animals ([1]; 24 h of continuous morphine treatment via minipump (6 mg daily)): significant antinociception
Time to development of tolerance to thermal tail flick stimuli ([1]; continuous subcutaneous pump administration of morphine (6 mg/day) in rats): 3 to 4 days
